Measured values reported in US20060252030A1, “Fabrication of carbohydrate chips by immobilizing unmodified carbohydrates on derivatized solid surfaces, and their uses” (priority 2005, published 2006).

Tests used:
[1] = test system: Triticum vulgaris (Cy3-TV, also known as wheat germ agglutinin); test: Carbohydrate chip incubated with Cy3-TV, fluorescence scanner; format: binding; conditions: carbohydrate on aminooxy or hydrazide chip, FIG. 5(a)
Method: (§1) A solution (0.1 μl˜1 nl) of carbohydrates including mono-, di-, oligo- and polysaccharides in PBS buffer (pH 4.0-5.0) containing 30-50% glycerol is printed on the above-mentioned chip base by using a micropipette or microarrayer. In this process, the concentration of carbohydrates is preferably between 0.1 mM and 50 mM. After completion of printing, the chip is reacted at 40-60° C. for 8 hours or more, and then washed. Then, the chip is immersed in PBS buffer (pH 7.4) containing 0.1% Tween 20 and 1% BSA (bovine serum albumin) for 1 hour. The fabrication of carbohydrate chips is complete by washing the BSA-treated chip with buffer (pH 7.4) containing 0.1% Tween 20 three times for 15 minutes.
(§2) The fabricated carbohydrate chips are applied for studies on protein-carbohydrate interactions. For these studies, the carbohydrate chips are incubated with non-labeled or fluorophore-labeled proteins in buffer containing 0.1% Tween 20 for 1 hour. Proteins labeled by fluorescent dyes such as Cy3, Cy5 and FITC are commercially available, or can be prepared by reacting proteins with fluorescent dyes. Then, the protein-treated chips are washed with buffer containing 0.1% Tween 20 three times for 10 minutes in order to remove unbound proteins.
(§3) Carbohydrate chips are used for the rapid assessment of carbohydrate-protein interactions, which are involve in various biological processes and are of importance for the development of novel therapeutics, and for the fast diagnosis of carbohydrate-based diseases such as tumors and pathogens. For this purpose, each solution (sodium phosphate buffer containing 30% glycerol, pH 5.0) of twenty one of mono-, di-, oligo- and polysaccharides listed in Table 1 was printed on the solid support coated by aminooxy or hydrazide groups. The carbohydrate chips prepared from the method described in Example 3 were incubated with Cy3-TV, Cy5-AA and FITC-ConA. According to the fluorescence intensity of the spots in chips after detecting with a fluorescence scanner, TV strongly is bound to N,N′-diacetylchitobiose (13), less strongly to GlcNAc (2) and sialyl Le^x (19), and weakly bound to GalNAc (5), LacNAc (15) and NeuNAcLacNAc (18) [see FIG. 5(a)].

[2] = biological target: T1, Aleuria aurantia (Cy5-AA) lectin (Aleuria aurantia, UniProt P18891); test: Carbohydrate chip incubated with Cy5-AA, fluorescence scanner; format: binding; conditions: carbohydrate on aminooxy or hydrazide chip, FIG. 5(b)
T1 sequence (P18891 1-313): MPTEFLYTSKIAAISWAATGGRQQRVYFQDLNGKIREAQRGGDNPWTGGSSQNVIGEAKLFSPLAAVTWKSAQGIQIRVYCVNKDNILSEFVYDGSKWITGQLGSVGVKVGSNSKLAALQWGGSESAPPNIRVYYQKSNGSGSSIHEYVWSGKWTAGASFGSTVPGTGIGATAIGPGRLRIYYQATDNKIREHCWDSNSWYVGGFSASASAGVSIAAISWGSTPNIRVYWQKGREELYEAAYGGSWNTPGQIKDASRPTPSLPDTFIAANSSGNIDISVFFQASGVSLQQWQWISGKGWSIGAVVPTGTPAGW
Method: as §1, §2, §3

[3] = biological target: ConA (Canavalia ensiformis, UniProt P02866); test: Carbohydrate chip incubated with FITC-ConA, fluorescence scanner; format: binding; conditions: carbohydrate on aminooxy or hydrazide chip, FIG. 5(c)
Method: as §1, §2
as §3, with “The carbohydrate chips prepared from the method described in Example 3 were incubated with Cy3-TV, Cy5-AA and FITC-ConA.” left out

[4] = test system: E. coli ORN178, expressing mannose-binding adhesin on pili; test: Carbohydrate chip probed with E. coli pre-incubated with propidium iodide; conditions: FIG. 5(e)
Method: FIG. 5 is a fluorescent image of carbohydrate chips composed of 21 carbohydrates probed with (a) Cy3-TV, (b) Cy5-AA, (c) FITC-ConA, (d) anti-Sialyl Le^x antibody and (e) E. Coli pre-incubated with propidium iodide (PI).
Many bacteria including pathogens express specific carbohydrate-binding proteins on pili. The initial attachment of pathogens to host cells through specific carbohydrate-protein interactions confers pathogenic properties. For example, a mannose-binding protein of type 1 fimbriated E. coli is known to cause common urinary tract infection through its binding to glycans on host cells (Connell, H. et al., Proc. Natl. Acad. Sci. USA 1996, 93, 9827). Thus, carbohydrate chips were also used to detect pathogens for diagnosis. E. coli ORN178, expressing mannose-binding adhesin on pili, binds to spots containing mannose, mannobiose and mannan [see FIG. 5(e)].

[5] = test system: anti-sialyl Le^x antibody; test: Carbohydrate chip incubated with anti-sialyl Le^x antibody, fluorescence image; format: binding; conditions: FIG. 5(d)
Method: as §1, §2
Sialyl Le^x is an important biological recognition marker and an interesting target for drug discovery. […]

For `CC(=O)N[C@H]1[C@H]([C@H](O)[C@H](O)CO)O[C@@](O[C@H]2[C@@H](O)[C@@H](CO)O[C@@H](O[C@H]3[C@H](O)[C@@H](NC(C)=O)C(O)O[C@@H]3CO)[C@@H]2O)(C(=O)O)C[C@@H]1O` (stereo partly shown) [compound 18, NeuNAcα2,3Galβ1,4GlcNAc], the “binding of TV to immobilized carbohydrate (fluorescence intensity of the spots)” value (shortened to “binding of TV”) [1] was “weakly bound”.
With `C[C@H](O)[C@@H](O)[C@@H](O)[C@H](O)C=O` [compound 8, fucose] the “binding of AA to immobilized carbohydrate (fluorescence intensity of the spots)” value (from here on “binding of AA”) [2] was “strongly bound”.
For `OC[C@H]1O[C@H](O[C@H]2[C@H](O)[C@@H](O)C(O)O[C@@H]2CO)[C@H](O)[C@@H](O)[C@@H]1O` (mixture of isomers) [compound 11, Maltose], the “binding of ConA to immobilized carbohydrate (fluorescence intensity of the spots)” value (shortened to “binding of ConA”) [3] was “very weak binding”.
For `CC(=O)N[C@H]1C(O)O[C@H](CO)[C@@H](O)[C@@H]1O` (stereo partly shown) [compound 2, N-acetylglucosamine], the “binding of TV” value [1] was “less strongly”.
For `CC(=O)N[C@H]1C(O)O[C@H](CO)[C@H](O)[C@@H]1O` (stereo partly shown) [compound 5, N-acetylgalactosamine], the “binding of TV” value [1] was “weakly bound”.
With Manα1,6Man [compound 16] the “binding of ConA” value [3] was “less strong binding” and the “binding of E. coli ORN178 to carbohydrate spots” value [4] was “binds”.
With `CC(=O)N[C@H]1[C@H](O[C@H]2[C@@H](O)[C@@H](CO)O[C@@H](O[C@H]3[C@H](O)[C@@H](O)C(O)O[C@@H]3CO)[C@@H]2O)O[C@H](CO)[C@@H](O[C@@H]2O[C@@H](C)[C@@H](O)[C@@H](O)[C@@H]2O)[C@@H]1O[C@@H]1O[C@H](CO)[C@H](O)[C@H](O)[C@H]1O[C@@H]1O[C@@H](C)[C@@H](O)[C@@H](O)[C@@H]1O` (stereo partly shown) [compound 20, Fucα1,2Galβ1,3(Fucα1,4)GlcNAcβ1,3Galβ1,4Glc] the “binding of AA” value [2] was “strongly bound”.
`CC(=O)N[C@H]1[C@H](O[C@H]2[C@H](O)[C@@H](NC(C)=O)C(O)O[C@@H]2CO)O[C@H](CO)[C@@H](O)[C@@H]1O` (stereo partly shown) [compound 13, N,N′-diacetylchitobiose] was tested, and the “binding of TV” value [1] was “strongly”.
With `CC(=O)N[C@H]1[C@H]([C@H](O)[C@H](O)CO)O[C@@](O[C@H]2[C@@H](O)[C@@H](CO)O[C@@H](O[C@H]3[C@H](O[C@@H]4O[C@@H](C)[C@@H](O)[C@@H](O)[C@@H]4O)[C@@H](NC(C)=O)C(O)O[C@@H]3CO)[C@@H]2O)(C(=O)O)C[C@@H]1O` (stereo partly shown) [compound 19, Sialyl Le^x] the “recognition by anti-sialyl Le^x antibody (fluorescence image of the chip)” value [5] was “selectively recognized”, the “binding of TV” value [1] was “less strongly” and the “binding of AA” value [2] was “very weakly bound”.
Galβ1,4GlcNac [compound 15] was tested, and the “binding of TV” value [1] was “weakly bound”.
With `C[C@@H]1O[C@@H](O[C@H]2[C@H](O[C@@H]3O[C@H](CO)[C@H](O)[C@H](O)[C@H]3O)[C@@H](CO)OC(O)[C@@H]2O)[C@@H](O)[C@H](O)[C@@H]1O` (stereo partly shown) [compound 17, Fucα1,3(Galβ1,4)Glc] the “binding of AA” value [2] was “strongly bound”.
Mannan [compound 21] was tested, and the “binding of ConA” value [3] was “strong binding” and the “binding of E. coli ORN178 to carbohydrate spots” value [4] was “binds”.
